From patent publication US9597342B2 (UWM Research Foundation, Inc., priority 2011, dated 2017)

Columns and labels:
[1] = In vitro metabolic stability using human liver microsomes
Experimental: The metabolic stability of 15 GABAA receptor ligands using human liver microsomes was studied. The test articles were incubated at two concentrations (1 and 10 μM) and aliquots (100 μl) were removed at various time points (0, 15, 30 and 60 minutes), and analyzed by LC-MS/MS.
(§1) The test articles were incubated at two concentrations (1 and 10 μM) in 96-well plate format with active or heat-inactivated human liver microsomes and cofactors. Aliquots were removed at 0, 15, 30 and 60 minutes and mixed with acetonitrile containing internal standard for analysis. Samples were extracted and assayed using a liquid chromatography/tandem mass spectrometry (LC-MS/MS) analytical method.
Pooled human liver microsomes (Lot #38289, pool of 150 different male and female donor livers) were obtained from BD Biosciences Corporation (Woburn, Mass.). Microsomes were stored at ˜−135° C. until use.
(§2) The test articles (1 and 10 μM) were incubated with human liver microsomes (0.5 mg protein/ml) and appropriate cofactors (2.5 mM NADPH and 3.3 mM magnesium chloride) in 100 mM phosphate buffer, pH 7.4 (0.1% final DMSO), in a 37° C. water bath. Incubations with all compounds were initiated with the addition of microsomes. At selected time points (0, 15, 30 and 60 min), a single 100 μl aliquot was removed from each sample and mixed with 200 μl of chilled acetonitrile containing internal standard. Following brief vortexing and centrifugation, the samples were further diluted into a 96-well plate for subsequent LC-MS/MS analysis. All samples were assayed in duplicate.
(§3) Experimental controls consisted of: a) incubation of all components except test article for 0 and 60 min, b) incubation of midazolam (positive control) at 10 μM for 0, 15, 30 and 60 min, and c) incubation of 1 and 10 μM test article and 10 μM midazolam with heat-inactivated microsomes (0.5 mg protein/ml) for 0 and 60 min. All controls were assayed in duplicate.
Samples were analyzed by LC-MS/MS in multiple reaction monitoring mode using positive-ion electrospray ionization. The details of the LC-MS/MS method can be provided upon request.
(§4) Data from the metabolic stability assays were transferred to and processed in a Microsoft Excel spreadsheet. To determine metabolic stability, the percent remaining at each time point was calculated by dividing the peak area ratio of test article/internal standard at each time point by the peak area ratio at 0 min multiplied by 100.

[2] = Incubation with heat-inactivated human liver microsomes (stability control); settings: 60 min
Experimental: as §1, §2, §3, §4

rhesus monkeys = assay: Conflict procedure (anxiolytic and sedating effects) in rhesus monkeys; type: in vivo; settings: i.v., cumulative dosing, data for one monkey (FIG. 14)
Source text: Other methods for evaluating compounds are known to those skilled in the art. For example, an assessment of anxiolytic effects of compounds can be accomplished objectively and quantitatively with operant-based conflict procedures, as described in Fischer et al. Neuropharmacology 59 (2010) 612-618. Briefly, behavior which is positively reinforced can be suppressed in these procedures by response-contingent administration of a noxious stimulus such as mild electric shock. […] The strength of conflict procedures is their predictive validity with respect to expected therapeutic effects in humans. Results from the Fischer et al. indicate that benzodiazepine-like drugs that have pharmacological activity for α2GABAA and/or α3GABAA receptors and low receptor activity at α 1GABAA and α5GABAA receptors may be useful, particularly as non-sedating anxiolytics. […]
Test sessions were conducted once or twice per week when monkeys reached stable performance, defined as the average rates of responding for component 1 and component 2 not varying by ±20% over five consecutive sessions, with no upward or downward trends. […] The dependent measure was the average rates of responding (responses/s), calculated by dividing responses by time during components 1 and 2, excluding responding during time outs or reinforcer delivery.

GABAA/α5 receptors = biological target: T1, GABAA/α5 receptors (Homo sapiens, UniProt P18507+P31644); settings: high affinity; Huang et al., J. Med. Chem. 2000; cited from earlier work
T1 sequence (P31644 32-462): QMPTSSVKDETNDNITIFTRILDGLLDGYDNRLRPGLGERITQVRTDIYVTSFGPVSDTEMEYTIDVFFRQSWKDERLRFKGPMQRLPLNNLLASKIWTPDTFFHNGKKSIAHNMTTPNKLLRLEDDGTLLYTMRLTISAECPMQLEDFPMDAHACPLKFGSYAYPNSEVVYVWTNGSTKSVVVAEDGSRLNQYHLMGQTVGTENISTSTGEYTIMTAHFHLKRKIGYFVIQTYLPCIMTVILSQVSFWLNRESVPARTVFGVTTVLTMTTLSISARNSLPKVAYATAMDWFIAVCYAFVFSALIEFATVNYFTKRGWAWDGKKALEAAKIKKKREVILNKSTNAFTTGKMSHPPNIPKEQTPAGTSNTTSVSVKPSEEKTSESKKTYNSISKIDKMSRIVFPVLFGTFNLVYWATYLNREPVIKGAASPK
T1 sequence (P18507 40-467 limits assumed): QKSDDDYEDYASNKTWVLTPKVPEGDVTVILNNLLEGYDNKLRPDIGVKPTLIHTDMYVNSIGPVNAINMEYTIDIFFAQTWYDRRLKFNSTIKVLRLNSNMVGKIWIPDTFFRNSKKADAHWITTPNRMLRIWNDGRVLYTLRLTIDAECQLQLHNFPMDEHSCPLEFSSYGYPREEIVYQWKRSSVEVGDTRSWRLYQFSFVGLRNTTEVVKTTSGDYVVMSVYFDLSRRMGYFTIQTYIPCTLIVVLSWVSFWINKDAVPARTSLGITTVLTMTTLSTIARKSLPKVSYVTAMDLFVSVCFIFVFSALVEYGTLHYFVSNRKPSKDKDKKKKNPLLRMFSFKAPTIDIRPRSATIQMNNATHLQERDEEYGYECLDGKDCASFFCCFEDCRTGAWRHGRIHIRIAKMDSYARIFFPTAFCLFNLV
T1 sequence (P28472 26-473 partner): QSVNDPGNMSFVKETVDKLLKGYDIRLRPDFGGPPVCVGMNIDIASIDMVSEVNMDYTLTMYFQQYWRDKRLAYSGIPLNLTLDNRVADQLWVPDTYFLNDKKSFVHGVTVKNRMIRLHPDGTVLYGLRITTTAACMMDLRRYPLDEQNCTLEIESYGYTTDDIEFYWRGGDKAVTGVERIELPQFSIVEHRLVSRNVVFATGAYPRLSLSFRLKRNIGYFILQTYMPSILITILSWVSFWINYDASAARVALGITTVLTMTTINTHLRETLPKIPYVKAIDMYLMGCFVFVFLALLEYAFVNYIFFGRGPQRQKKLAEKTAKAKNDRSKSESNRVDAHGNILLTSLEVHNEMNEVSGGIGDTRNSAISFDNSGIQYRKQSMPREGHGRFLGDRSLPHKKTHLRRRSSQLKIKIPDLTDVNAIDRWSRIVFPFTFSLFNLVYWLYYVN

GABAA/α2 = biological target: T2, GABAA/α2 (Homo sapiens, UniProt P18507+P47869); settings: intermediate affinity; Huang et al., J. Med. Chem. 2000; cited from earlier work
T2 sequence (P47869 29-451): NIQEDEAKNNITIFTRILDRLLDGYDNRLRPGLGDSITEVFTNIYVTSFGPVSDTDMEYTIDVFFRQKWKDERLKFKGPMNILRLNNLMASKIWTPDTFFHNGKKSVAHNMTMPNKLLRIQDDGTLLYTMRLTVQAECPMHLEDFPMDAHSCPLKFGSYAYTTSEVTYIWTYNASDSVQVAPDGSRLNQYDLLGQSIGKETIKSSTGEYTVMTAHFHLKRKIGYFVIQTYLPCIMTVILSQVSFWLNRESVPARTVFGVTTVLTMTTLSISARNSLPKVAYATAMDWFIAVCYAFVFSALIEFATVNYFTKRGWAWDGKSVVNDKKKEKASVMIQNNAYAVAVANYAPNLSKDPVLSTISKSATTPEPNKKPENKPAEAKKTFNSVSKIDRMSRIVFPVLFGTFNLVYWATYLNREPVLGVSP
T2 sequence (P18507 40-467 limits assumed): T1 sequence (P18507 40-467 limits assumed)
T2 sequence (P28472 26-473 partner): T1 sequence (P28472 26-473 partner)

GABAA/α3 = biological target: T3, GABAA/α3 (Homo sapiens, UniProt P18507+P34903); settings: intermediate affinity; Huang et al., J. Med. Chem. 2000; cited from earlier work
T3 sequence (P34903 29-492): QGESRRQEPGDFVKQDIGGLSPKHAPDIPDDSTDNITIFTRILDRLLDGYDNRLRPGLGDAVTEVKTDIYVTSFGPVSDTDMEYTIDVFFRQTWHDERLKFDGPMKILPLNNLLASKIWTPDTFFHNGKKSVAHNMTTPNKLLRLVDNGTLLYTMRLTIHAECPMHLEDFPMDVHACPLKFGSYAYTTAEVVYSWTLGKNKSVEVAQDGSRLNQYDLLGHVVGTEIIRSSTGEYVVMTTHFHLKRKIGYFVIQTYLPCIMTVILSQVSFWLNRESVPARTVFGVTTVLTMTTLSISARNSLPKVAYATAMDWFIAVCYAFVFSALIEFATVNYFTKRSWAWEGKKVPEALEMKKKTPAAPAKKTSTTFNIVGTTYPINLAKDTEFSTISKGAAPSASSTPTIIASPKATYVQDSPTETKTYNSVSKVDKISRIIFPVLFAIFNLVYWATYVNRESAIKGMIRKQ
T3 sequence (P18507 40-467 limits assumed): T1 sequence (P18507 40-467 limits assumed)
T3 sequence (P28472 26-473 partner): T1 sequence (P28472 26-473 partner)

GABAA/α1 receptors = biological target: T4, GABAA/α1 receptors (Homo sapiens, UniProt P14867+P18507); settings: poorer affinity; Huang et al., J. Med. Chem. 2000; cited from earlier work
T4 sequence (P14867 28-456): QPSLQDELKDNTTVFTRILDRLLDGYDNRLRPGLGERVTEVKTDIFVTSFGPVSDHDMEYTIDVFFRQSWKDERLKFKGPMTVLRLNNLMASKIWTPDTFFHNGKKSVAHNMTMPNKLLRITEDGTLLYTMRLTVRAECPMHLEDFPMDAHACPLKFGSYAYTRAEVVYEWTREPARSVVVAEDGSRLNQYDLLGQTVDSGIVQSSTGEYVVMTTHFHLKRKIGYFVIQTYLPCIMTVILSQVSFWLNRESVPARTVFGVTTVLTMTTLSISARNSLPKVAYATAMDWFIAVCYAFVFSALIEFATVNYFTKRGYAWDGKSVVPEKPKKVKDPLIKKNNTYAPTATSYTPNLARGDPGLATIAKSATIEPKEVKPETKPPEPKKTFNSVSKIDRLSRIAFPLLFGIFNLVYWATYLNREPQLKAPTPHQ
T4 sequence (P18507 40-467 limits assumed): T1 sequence (P18507 40-467 limits assumed)
T4 sequence (P28472 26-473 partner): T1 sequence (P28472 26-473 partner)

Row | Compound | Mean % Remaining vs T = 0 min, Human Liver Microsomes ([1]; 1 μM, 15 min) [%] | Mean % Remaining vs T = 0 min, Human Liver Microsomes ([1]; 1 μM, 30 min) [%] | Mean % Remaining vs T = 0 min, Human Liver Microsomes ([1]; 1 μM, 60 min) [%] | Mean % Remaining vs T = 0 min, Human Liver Microsomes ([1]; 10 μM, 15 min) [%] | Mean % Remaining vs T = 0 min, Human Liver Microsomes ([1]; 10 μM, 30 min) [%] | Mean % Remaining vs T = 0 min, Human Liver Microsomes ([1]; 10 μM, 60 min) [%] | Mean % Remaining vs T = 0 min, with HI (Heat Inactivated) Microsomes ([2]; 1 μM) [%] | Mean % Remaining vs T = 0 min, with HI (Heat Inactivated) Microsomes ([2]; 10 μM) [%] | melting point [°C] | anxiolytic effect (suppressed responding) (rhesus monkeys) | sedating effect (non-suppressed responding) (rhesus monkeys) | Ki (GABAA/α5 receptors) [nM] | Ki (GABAA/α2) [nM] | Ki (GABAA/α3) [nM] | Ki (GABAA/α1 receptors) [nM]
1 | C#Cc1ccc2c(c1)C(c1ccccn1)=NCc1c(C(=O)NC)ncn1-2 [HJ-I-40, 8-Ethynyl-N-methyl-6-(pyridine-2-yl)-4H-benzo[f]imidazo[1,5-a][1,4]diazepine-3-carboxamide] | 109 | 126 | 136 | 104 | 106 | 110 | 110 | 110 | 215 to 216 | – | – | – | – | – | –
2 | C#Cc1ccc2c(c1)C(c1ccccc1F)=NCc1c(C(=O)OCCCOC(=O)c3ncn4c3CN=C(c3ccccc3F)c3cc(C#C)ccc3-4)ncn1-2 [YT-III-271, Propane-1,3-Diyl-Bis-(8-Ethynyl-6-(2-Fluorophenyl)-4H-Benzo-[1]-Imidazo-[1,5-a]-[1,4]-Diazepine-3-Carboxylate)] | 97.1 | 83.5 | – | 104 | 102 | 91.1 | 117 | 97.0 | – | clearly anxiolytic | nonsedating | – | – | – | –
3 | C#Cc1ccc2c(c1)C(c1ccccc1)=NCC(=O)N2C [QH-ii-066] | – | – | – | – | – | – | – | – | – | – | – | < 10 | < 50 | < 50 | > 70
4 | C#Cc1ccc2c(c1)C(c1ccccc1F)=NCc1c(C(=O)NC)ncn1-2 [HJ-I-037, 8-Ethynyl-N-methyl-6-(2-fluorophenyl)-4H-benzo[f]imidazo[1,5-a][1,4]diazepine-3-carboxamide] | 97.7 | 99.5 | 92.7 | 96.8 | 103 | 103 | 117 | 108 | 235 to 236 | – | – | – | – | – | –
